Among the data in ChEMBL document CHEMBL4038347, “Converting Teixobactin into a Cationic Antimicrobial Peptide (AMP)” (2017) are MIC values, retold here.

Common to all, as to assay type: functional
For one test, the system named is Escherichia coli. Kind of test: Antibacterial activity against Escherichia coli ATCC 25922 after 24 hrs by broth microdilution method. Conditions: ATCC 25922, 24 h. For orientation: Broth dilution looks for growth in wells or tubes with falling amounts of substance.
For a further test, the system named is Staphylococcus aureus. Kind of test: Antibacterial activity against Staphylococcus aureus ATCC 29213 after 24 hrs by broth microdilution method. Conditions: ATCC 29213, 24 h.
A further test deals with Bacillus subtilis. Kind of test: Antibacterial activity against Bacillus subtilis ATCC 6051 after 24 hrs by broth microdilution method. Conditions: ATCC 6051, 24 h.
For another test, the system named is Pseudomonas aeruginosa. Kind of test: Antibacterial activity against Pseudomonas aeruginosa ATCC 27853 after 24 hrs by broth microdilution method. Conditions: ATCC 27853, 24 h.

In brackets after ≈: the same amount, converted by molar mass.

The term MIC denotes the smallest concentration in the dilution series that meets the test's criterion for growth inhibition. High values mean weaker potency, low ones greater potency. In the case of `CC[C@H](C)[C@H](NC(=O)[C@@H](Cc1ccccc1)NC)C(=O)N[C@@H](CO)C(=O)N[C@H](CCC(N)=O)C(=O)N[C@@H](C(=O)N[C@H](C(=O)N[C@@H](CO)C(=O)N[C@H]1C(=O)N[C@@H](CCCCN)C(=O)N[C@@H](CCCN)C(=O)N[C@@H]([C@@H](C)CC)C(=O)O[C@H]1C)[C@@H](C)CC)[C@@H](C)CC`, the MIC amounted to 32 µg/mL (≈ 25.4 µM) in the test on Escherichia coli, 2 µg/mL (≈ 1.59 µM) in the test on Staphylococcus aureus, 0.5 µg/mL (≈ 0.397 µM) against Bacillus subtilis and 64 µg/mL (≈ 50.8 µM) in the test with Pseudomonas aeruginosa.

On to `CC[C@H](C)[C@H](NC(=O)[C@@H](Cc1ccccc1)NC)C(=O)N[C@@H](CO)C(=O)N[C@H](CCC(N)=O)C(=O)N[C@@H](C(=O)N[C@H](C(=O)N[C@@H](CCCCN)C(=O)N[C@H]1C(=O)N[C@@H](CCCCN)C(=O)N[C@@H](CCCCN)C(=O)N[C@@H]([C@@H](C)CC)C(=O)O[C@H]1C)[C@@H](C)CC)[C@@H](C)CC`, for which the MIC against Escherichia coli was determined as 128 µg/mL (≈ 97.4 µM); with Staphylococcus aureus it was 128 µg/mL (≈ 97.4 µM); in the test on Bacillus subtilis it was 8 µg/mL (≈ 6.09 µM); in the test on Pseudomonas aeruginosa, 256 µg/mL (≈ 195 µM).

As for `CC[C@H](C)[C@H](NC(=O)[C@@H](Cc1ccccc1)NC)C(=O)N[C@@H](CCCCN)C(=O)N[C@H](CCC(N)=O)C(=O)N[C@@H](C(=O)N[C@H](C(=O)N[C@@H](CO)C(=O)N[C@H]1C(=O)N[C@@H](CCCCN)C(=O)N[C@@H](CCCCN)C(=O)N[C@@H]([C@@H](C)CC)C(=O)O[C@H]1C)[C@@H](C)CC)[C@@H](C)CC` (stereo in doubt), the MIC against Escherichia coli stood at 32 µg/mL (≈ 24.3 µM); with Staphylococcus aureus it was 4 µg/mL (≈ 3.04 µM); in the test on Bacillus subtilis it was 1 µg/mL (≈ 0.761 µM); against Pseudomonas aeruginosa it was 128 µg/mL (≈ 97.4 µM).

As for `CC[C@H](C)[C@H](NC(=O)[C@@H](Cc1ccccc1)NC)C(=O)N[C@@H](CO)C(=O)N[C@H](CCC(N)=O)C(=O)N[C@@H](C(=O)N[C@H](C(=O)N[C@@H](CCCCN)C(=O)N[C@H]1C(=O)N[C@@H](C)C(=O)N[C@@H](CCCN)C(=O)N[C@@H]([C@@H](C)CC)C(=O)O[C@H]1C)[C@@H](C)CC)[C@@H](C)CC`, the MIC against Escherichia coli was determined as 512 µg/mL (≈ 412 µM); in the test on Staphylococcus aureus, 128 µg/mL (≈ 103 µM); in the test on Bacillus subtilis it was 16 µg/mL (≈ 12.9 µM); against Pseudomonas aeruginosa it was 512 µg/mL (≈ 412 µM).

Take `CC[C@H](C)[C@H](NC(=O)[C@@H](Cc1ccccc1)NC)C(=O)N[C@@H](CCCCN)C(=O)N[C@H](CCCCN)C(=O)N[C@@H](C(=O)N[C@H](C(=O)N[C@@H](CO)C(=O)N[C@H]1C(=O)N[C@@H](C)C(=O)N[C@@H](CCCNC(=N)N)C(=O)N[C@@H]([C@@H](C)CC)C(=O)O[C@H]1C)[C@@H](C)CC)[C@@H](C)CC`: the MIC in the test with Escherichia coli is 64 µg/mL (≈ 49.8 µM); against Staphylococcus aureus, 32 µg/mL (≈ 24.9 µM); against Bacillus subtilis, 4 µg/mL (≈ 3.11 µM); in the test on Pseudomonas aeruginosa, 64 µg/mL (≈ 49.8 µM).

`CC[C@H](C)[C@H](NC(=O)[C@@H](Cc1ccccc1)NC)C(=O)N[C@@H](CN)C(=O)N[C@H](CN)C(=O)N[C@@H](C(=O)N[C@H](C(=O)N[C@@H](CO)C(=O)N[C@H]1C(=O)N[C@@H](CN)C(=O)N[C@@H](CCCCN)C(=O)N[C@@H]([C@@H](C)CC)C(=O)O[C@H]1C)[C@@H](C)CC)[C@@H](C)CC`: the MIC was determined as 64 µg/mL (≈ 53.9 µM) in the test with Escherichia coli, 16 µg/mL (≈ 13.5 µM) against Staphylococcus aureus, 4 µg/mL (≈ 3.37 µM) in the test on Bacillus subtilis and 32 µg/mL (≈ 26.9 µM) in the test on Pseudomonas aeruginosa.

Turning to `CC[C@H](C)[C@H](NC(=O)[C@@H](Cc1ccccc1)NC)C(=O)N[C@@H](CO)C(=O)N[C@H](CCC(N)=O)C(=O)N[C@@H](C(=O)N[C@H](C(=O)N[C@@H](CN)C(=O)N[C@H]1C(=O)N[C@@H](CN)C(=O)N[C@@H](CCCCN)C(=O)N[C@@H]([C@@H](C)CC)C(=O)O[C@H]1C)[C@@H](C)CC)[C@@H](C)CC`, the MIC against Escherichia coli turned out to be 128 µg/mL (≈ 104 µM); in the test with Staphylococcus aureus it was 32 µg/mL (≈ 26 µM); against Bacillus subtilis, 8 µg/mL (≈ 6.5 µM); against Pseudomonas aeruginosa, 128 µg/mL (≈ 104 µM).
